Patent publication US11795460B2, “Compositions and methods for TTR gene editing and treating ATTR amyloidosis” (Intellia Therapeutics, Inc., priority 2017, dated 2023)

Columns and labels:
TTR [1] = experiment: TTR editing in primary human hepatocytes transfected with Spy Cas9 mRNA and dgRNAs (Table 9); format: cell-based; settings: dgRNA co-transfected with Spy Cas9 mRNA (SEQ ID NO:2)
Summary of the method: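 PHH sequentially lipofected with Spy Cas9 mRNA (100 ng), then crRNA plus tracrRNA (25 nM each) dual-guide lipoplex. Cells harvested 24, 48 or 72 h post-transfection; TTR target amplicons sequenced on Illumina MiSeq, editing given as percent reads with indels or substitutions over total reads.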

TTR [2] = experiment: TTR editing in HEK293_Cas9 cells transfected with dgRNAs (Table 4); format: cell-based, human; settings: HEK293_Cas9 cells (constitutively express Spy Cas9) transfected with dgRNAs
Summary of the method: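 Percent editing, taken from amplicon NGS as the fraction of all reads carrying insertions, deletions or substitutions, was measured 24, 48 or 72 h after delivery. Delivery used RNAiMAX lipoplexes of 25 nM each crRNA and trRNA into HEK293 cells stably expressing Spy Cas9.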

TTR [3] = experiment: TTR editing in primary human hepatocytes electroporated with Spy Cas9 protein loaded with dgRNAs (Table 7); format: cell-based; settings: dgRNA electroporated with Spy Cas9 protein (RNP)
Summary of the method: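 Editing efficiency is the fraction of NGS reads carrying insertions, deletions or substitutions at the TTR target, measured on MiSeq amplicons from DNA harvested 24, 48 or 72 h post-delivery. Cas9–dgRNA ribonucleoprotein was nucleofected (P3 buffer, EX-147) into primary human or cyno hepatocytes.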

Sequence | Avg % Deletion (TTR [1]) | Avg % Edit (TTR [1]) | Avg % Insert (TTR [1]) | Avg % Deletion (TTR [2]) | Avg % Edit (TTR [2]) | Avg % Insert (TTR [2]) | Avg % Deletion (TTR [3]) | Avg % Edit (TTR [3]) | Avg % Insert (TTR [3])
AUUGGUGACGACAGCCGUGG (tested as dual guide RNA, chemistry not given here) [CR003389] | 2.83% | 44.27% | 41.47% | 23.87% | 34.18% | 10.30% | 0.50% | 27.67% | 27.20%
CAGAGGACACUUGGAUUCAC (tested as dual guide RNA, chemistry not given here) [CR003343] | 2.60% | 55.03% | 52.40% | 19.53% | 24.36% | 4.82% | 1.50% | 77.10% | 75.63%
CAUUGAUGGCAGGACUGCCU (tested as dual guide RNA, chemistry not given here) [CR003347] | 0.17% | 41.47% | 41.33% | 20.50% | 21.45% | 0.95% | 0.43% | 82.30% | 81.97%
CCAGUCCAGCAAGGCAGAGG (tested as dual guide RNA, chemistry not given here) [CR003337] | 1.23% | 19.30% | 18.10% | 37.48% | 42.72% | 5.24% | 1.30% | 54.27% | 53.23%
CCCAGAGGCAAAUGGCUCCC (tested as dual guide RNA, chemistry not given here) [CR003355] | 1.63% | 12.07% | 10.47% | 23.61% | 30.60% | 6.99% | 1.97% | 12.53% | 10.60%
CCCCUACUCCUAUUCCACCA (tested as dual guide RNA, chemistry not given here) [CR003385] | 3.60% | 36.77% | 33.23% | 18.82% | 26.19% | 7.36% | 2.53% | 40.87% | 38.43%
CCGUGGUGGAAUAGGAGUAG (tested as dual guide RNA, chemistry not given here) [CR003386] | 0.13% | 8.27% | 8.20% | 30.18% | 33.12% | 2.94% | 0.47% | 4.90% | 4.47%
CCUCCUCUGCCUUGCUGGAC (tested as dual guide RNA, chemistry not given here) [CR003336] | 0.80% | 16.93% | 16.20% | 25.78% | 29.09% | 3.31% | 0.70% | 39.17% | 38.43%
CCUCUGCAUGCUCAUGGAAU (tested as dual guide RNA, chemistry not given here) [CR003370] | 0.50% | 2.83% | 2.33% | 29.73% | 34.22% | 4.49% | 0.90% | 15.27% | 14.43%
CUCUGCAUGCUCAUGGAAUG (tested as dual guide RNA, chemistry not given here) [CR003369] | 0.70% | 1.60% | 0.90% | 24.04% | 33.10% | 9.06% | 0.40% | 3.67% | 3.30%
CUGAGGAGGAAUUUGUAGAA (tested as dual guide RNA, chemistry not given here) [CR003364] | 8.93% | 15.63% | 6.73% | 16.48% | 35.65% | 19.17% | 6.53% | 23.30% | 16.93%
CUGCUCCUCCUCUGCCUUGC (tested as dual guide RNA, chemistry not given here) [CR003335] | 3.40% | 36.43% | 33.03% | 21.87% | 26.59% | 4.73% | 2.50% | 72.20% | 69.70%
CUGGUAUUUGUGUCUGAGGC (tested as dual guide RNA, chemistry not given here) [CR003341] | 9.07% | 15.83% | 6.80% | 13.31% | 20.04% | 6.73% | 4.40% | 11.43% | 7.03%
CUUCUCUACACCCAGGGCAC (tested as dual guide RNA, chemistry not given here) [CR003342] | 1.50% | 22.10% | 20.60% | 35.38% | 36.57% | 1.19% | 0.90% | 32.77% | 31.87%
GAAAGGCUGCUGAUGACACC (tested as dual guide RNA, chemistry not given here) [CR003352] | 5.07% | 16.80% | 11.73% | 22.99% | 27.90% | 4.91% | 4.30% | 29.83% | 25.63%
GACGACAGCCGUGGUGGAAU (tested as dual guide RNA, chemistry not given here) [CR003388] | 1.17% | 12.97% | 11.87% | 17.82% | 19.23% | 1.41% | 0.27% | 5.70% | 5.47%
GCAACUUACCCAGAGGCAAA (tested as dual guide RNA, chemistry not given here) [CR003356] | 2.67% | 7.27% | 4.70% | 22.19% | 32.21% | 10.03% | 2.23% | 9.97% | 7.80%
GCAGGGCGGCAAUGGUGUAG (tested as dual guide RNA, chemistry not given here) [CR003380] | 0.47% | 2.93% | 2.47% | 44.00% | 47.64% | 3.64% | 0.10% | 5.37% | 5.27%
GCAUGGGCUCACAACUGAGG (tested as dual guide RNA, chemistry not given here) [CR003362] | 0.47% | 6.60% | 6.17% | 8.41% | 9.90% | 1.48% | 0.20% | 7.03% | 6.87%
GCCGUGGUGGAAUAGGAGUA (tested as dual guide RNA, chemistry not given here) [CR003387] | 0.03% | 7.87% | 7.80% | 16.92% | 24.68% | 7.75% | 0.20% | 1.87% | 1.70%
GCGGCAAUGGUGUAGCGGCG (tested as dual guide RNA, chemistry not given here) [CR003377] | 0.57% | 17.53% | 16.97% | 21.99% | 24.70% | 2.71% | 0.10% | 10.23% | 10.13%
GCUGCAUGGGCUCACAACUG (tested as dual guide RNA, chemistry not given here) [CR003361] | 0.87% | 3.53% | 2.73% | 25.78% | 34.45% | 8.66% | 0.37% | 4.10% | 3.73%
